# According to patent US20220053764A1, “METHOD OF CONTROLLING WEEDS” (SUMITOMO CHEMICAL COMPANY, LIMITED, priority 2018, published 2022):
# Where a name gives a salt, the structure may show the parent alone.
# Assays:
# Format in all cases: in vivo
# [1] = tested on: glyphosate-sensitive Amaranthus palmeri; assay: Herbicidal effect, foliar spray on potted weeds in greenhouse; settings: rating 0 to 100, 14 days after foliar spray, 200 L/ha
# Experimental: (§1) In a plastic pot filled with soli were seeded glyphosate-resistant Amaranthus palmeri in which the number of copies of EPSPS gene had been increased (produced by Azlin Seed Service) and glyphosate-sensitive Amaranthus palmeri (produced by Azlin Seed Service). The weeds were cultivated in a greenhouse for 18 days, and then an aqueous spray liquid [i.e., a liquid prepared by diluting a predetermined amount of a trifludimoxazin formulation (i.e., an emulsifiable concentrate prepared by mixing 20 parts of trifludimoxazin with 80 parts of a liquid cocktail (i.e., a mixture of 5 parts of cyclohexanone and 1 part of SORPOL 2680X (manufactured by TOHO Chemical Industry Co., Ltd.))) with water containing a spreading agent] was sprayed uniformly from above the weeds at the amount of 200 L/ha using a sprayer. Subsequently, the weeds were allowed to grow in a greenhouse for 14 days, and then the herbicidal effect was examined. As a reference example, the same procedure was carried out, except that the trifludimoxazin formulation was replaced with a predetermined amount of a glyphosate formulation (i.e., a soluble liquid containing 660 g/L of glyphosate potassium salt: “ROUNDUP MAXLOAD” (manufactured by Nissan Chemical Corporation). The results are shown in the table 1.
# [2] = tested on: glyphosate-resistant Amaranthus palmeri in which the number of copies of EPSPS gene had been increased; assay: as above; settings: rating 0 to 100, 14 days after foliar spray, 200 L/ha
# Experimental: as §1
# [3] = tested on: glyphosate-resistant weeds (Amaranthus palmeri, waterhemp, kochia, marestail, Guernsey fleabane, fleabane, goosegrass, darnel) and volunteer …; assay: Foliar treatment 21 days after seeding, greenhouse pot test (Example 2); settings: foliar treatment at 6.25, 125, 25, 50, 100 or 150 g/ha; 200 L/ha; fourteen days after the treatment
# Experimental: In a plastic pot filled with soil are seeded glyphosate-resistant Amaranthus palmeri in which the number of copies of EPSPS gene has been increased, glyphosate-resistant waterhemp in which the number of copies of EPSPS gene has been increased, glyphosate-resistant kochia in which the number of copies of EPSPS gene has been increased, marestail which is resistant to glyphosate by involving an ABC transporter, Guernsey fleabane which is resistant to glyphosate by involving an ABC transporter, fleabane which is resistant to glyphosate by involving an ABC transporter, glyphosate-resistant goosegrass having Thr102Ile, glyphosate-resistant goosegrass having Pro106Ser, glyphosate-resistant goosegrass having Pro106Ala, glyphosate-resistant goosegrass having Pro106Leu, glyphosate-resistant goosegrass having Thr102Ile and Pro106Ser, glyphosate-resistant darnel having Thr102Ile, glyphosate-resistant darnel having Pro106Ser, glyphosate-resistant darnel having Pro106Ala, glyphosate-resistant darnel having Pro106Leu, volunteer glyphosate-tolerant soybean, and volunteer glyphosate-tolerant cotton. The plants are cultivated in a greenhouse for 21 days, and then trifludimoxazin is applied to foliage of the plants at application rate of 6.25, […], 25, 50, 100 or 150 g/ha. The amount of a liquid sprayed is 200 L/ha. Subsequently, the plants are cultivated in a greenhouse.
# [4] = tested on: glyphosate-resistant weeds (Amaranthus palmeri, waterhemp, kochia, marestail, Guernsey fleabane, fleabane, goosegrass, darnel) and volunteer …; assay: Soil treatment on day of seeding, greenhouse pot test (Example 1); settings: soil treatment at 6.25, 12.5, 25, 50, 100 or 150 g/ha; 200 L/ha; twenty-eight days after the treatment
# Experimental: In a plastic pot filled with soil are seeded glyphosate-resistant Amaranthus palmeri in which the number of copies of EPSPS gene has been increased, glyphosate-resistant waterhemp in which the number of copies of EPSPS gene has been increased, glyphosate-resistant kochia in which the number of copies of EPSPS gene has been increased, marestail which is resistant to glyphosate by involving an ABC transporter, Guernsey fleabane which is resistant to glyphosate by involving an ABC transporter, fleabane which is resistant to glyphosate by involving an ABC transporter, glyphosate-resistant goosegrass having Thr102Ile, glyphosate-resistant goosegrass having Pro106Ser, glyphosate-resistant goosegrass having Pro106A1a, glyphosate-resistant goosegrass having Pro106Leu, glyphosate-resistant goosegrass having Thr102Ile and Pro106Ser, glyphosate-resistant darnel having Thr102Ile, glyphosate-resistant darnel having Pro106Ser, glyphosate-resistant darnel having Pro106Ala, glyphosate-resistant darnel having Pro106Leu, volunteer glyphosate-tolerant soybean, and volunteer glyphosate-tolerant cotton. On the same day, the soil is treated with trifludimoxazin at the application rate of 6.25, 12.5, 25, 50, 100 or 150 g/ha. The amount of a liquid sprayed is 200 L/ha. Subsequently, the plants are cultivated in a greenhouse.
Structure (SMILES),Effect on glyphosate-sensitive Amaranthus palmeri ([1]; application rate 385 g/ha),Effect on glyphosate-sensitive Amaranthus palmeri ([1]; application rate 1540 g/ha),Effect on glyphosate-resistant Amaranthus palmeri ([2]; application rate 1540 g/ha),Effect on glyphosate-resistant Amaranthus palmeri ([2]; application rate 6160 g/ha),Effect on glyphosate-sensitive Amaranthus palmeri ([1]; application rate 6.25 g/ha),Effect on glyphosate-sensitive Amaranthus palmeri ([1]; application rate 12.5 g/ha),Effect on glyphosate-sensitive Amaranthus palmeri ([1]; application rate 25 g/ha),Effect on glyphosate-resistant Amaranthus palmeri ([2]; application rate 6.25 g/ha),Effect on glyphosate-resistant Amaranthus palmeri ([2]; application rate 12.5 g/ha),Effect on glyphosate-resistant Amaranthus palmeri ([2]; application rate 25 g/ha),effect against the weeds [3],effect against the weeds [4]
"O=C(O)CNCP(=O)(O)O [Glyphosate potassium salt, glyphosate potassium salt]",100,100,20,70,,,,,,,,
"C#CCN1C(=O)C(F)(F)Oc2cc(F)c(-n3c(=O)n(C)c(=S)n(C)c3=O)cc21 [Trifludimoxazin, trifludimoxazin]",,,,,65,70,80,100,100,100,significant effect,significant effect
